Measurements taken from US20040023878A1, “Gnrh analogues for treatment of urinary incontinence” (priority 2003, published 2004).
Several values for one entry are separate records, joined by “and”; a condition that tells them apart may be missing. Equal values may be shown once. Entries after “also recorded” stand apart in the source; their conditions may differ. Where a name gives a salt, the structure may show the parent alone.

Columns and labels:
[1] = tested on: excessive growth of the undercoat (baby coat) due to spaying; test: Two cocker spaniel bitches with excessive growth of the undercoat due to spaying, slow-release s.c. implant; format: in vivo, dog; conditions: 5 mg slow release s.c.
Description: Two cocker spaniel bitches belonging to the same owner were showing excessive growth of the undercoat due to spaying. […] Both dogs were first clinically examined and thereafter a GnRH analogue (Deslorelin) in a dosage of 5 mg, in slow release form, was subcutaneously implanted between the shoulder blades.

stress incontinence = test: Menopausal person with stress incontinence, 24 hour pad test; format: in vivo, human; conditions: single dose 3.75 mg, one person
Description: A second menopausal person, suffering from stress incontinence for at least 6 years, was treated with a single dose of 3.75 mg of leuprolide acetate. 24 hour pad tests conducted prior to treatment with the drug indicated they lost between 10 and 130 ml of urine on a daily basis due to their incontinence.

[2] = tested on: dogs suffering from urinary incontinence; test: Double-blind, placebo-control study with open label phase in 16 client owned dogs suffering from urinary incontinence; format: in vivo, dog; conditions: ongoing study
Description: In a second ongoing study, 16 client owned dogs suffering from urinary incontinence were enrolled in a double-blind, placebo-control study. In the initial phase of the study, dogs were randomly assigned to treatment with a long-acting GnRH analogue (leuprolide acetate) or placebo (dog owners and the investigators were blinded to treatment) along with a short course of therapy with phenylpropanolamine. 5 weeks after treatment with drug or placebo, dogs were evaluated and, if not fully continent, treated with a long-acting GnRH analogue (leuprolide acetate) in an open label phase of the study. To date only 1 of 10 dogs treated with placebo became continent vs. […] treated with drug during the blinded portion of the study. Overall, the results generated thus far indicate […] dogs treated with the long-acting GnRH analogue became continent and […] improved after discontinuation of the short acting phenylpropanolamine. Only 1 dog of 15 treated with the GnRH analogue was considered not to have improved following treatment with the drug.

[3] = tested on: bitches suffering from urinary incontinence after spaying; test: Fifteen bitches with urinary incontinence after spaying, given a slow-release s.c. GnRH analogue implant plus phenylpropanolamine for a limited period; format: in vivo, dog; conditions: for Side effects: dash = none
Description: Additionally, for a limited period the dogs were treated with phenylpropanolamine in a dosage of 1.5 mg/kg BW tid orally.
After discontinuation of the shortacting phenylpropanolamine 8 bitches remained continent. Their continence was therefore achieved solely by the treatment with the composition as described in the present invention. Seven out of fifteen dogs seemed to be much happier and in none of the dogs did the general condition deteriorate. […] The respective results are shown in more detail in table 1.

[4] = tested on: urinary incontinence of the bitch; conditions: 1.5 mg/kg BW p.o. given every 8 hours; incontinent spayed bitches; cited from earlier work
[5] = tested on: urge incontinence and hotflushes; test: Perimenopausal person with urge incontinence and hot flushes; format: in vivo, human; conditions: 3.75 mg; one perimenopausal person
[6] = 11,25 mg slow release s.c. implant, no 'with PPA' mark, individual bitches, listed as Leuprorelin acetate
[7] = 11,25 mg slow release s.c. implant, with PPA, individual bitch
[8] = 6 mg slow release s.c. implant, no 'with PPA' mark, individual bitches
[9] = 12 mg slow release s.c. implant, no 'with PPA' mark, individual bitches

CCNC(=O)[C@@H]1CCCN1C(=O)[C@H](CCCN=C(N)N)NC(=O)[C@H](CC(C)C)NC(=O)[C@@H](Cc1c[nH]c2ccccc12)NC(=O)[C@H](Cc1ccc(O)cc1)NC(=O)[C@H](CO)NC(=O)[C@H](Cc1c[nH]c2ccccc12)NC(=O)[C@H](Cc1cnc[nH]1)NC(=O)[C@@H]1CCC(=O)N1 [Deslorelin]
Coat quality ([1]; 5 weeks after the injection, both dogs): obvious amelioration of the coat quality | Signs of baby coat ([1]; 21 weeks after injection): no signes of “baby coat” were apparent anymore

CCNC(=O)[C@@H]1CCCN1C(=O)[C@H](CCCNC(=N)N)NC(=O)[C@H](CC(C)C)NC(=O)[C@@H](CC(C)C)NC(=O)[C@H](Cc1ccc(O)cc1)NC(=O)[C@H](CO)NC(=O)[C@H](Cc1c[nH]c2ccccc12)NC(=O)[C@H](Cc1c[nH]cn1)NC(=O)[C@@H]1CCC(=O)N1 [Leuprorelinacetate, leuprolide acetate]
Daily urine loss, pad test (stress incontinence; 2 weeks after treatment, before treatment between 10 and 130 ml daily): 1 mL | Patient's satisfaction with the effects of the therapy (stress incontinence): very satisfied | Dogs that became continent after discontinuation of phenylpropanolamine, overall ([2]; of 15 dogs treated (blinded plus open label)): 6 dogs | Dogs considered not to have improved following treatment ([2]; of 15 treated): 1 dog | Remaining dogs that improved after discontinuation of phenylpropanolamine ([2]; of the remaining dogs of 15 treated): 9 dogs | Dogs that became continent during the blinded portion of the study ([2]; printed '3 to 8 dogs treated with drug', 5 weeks after treatment, with short course of phenylpropanolamine): 3 dogs | Duration of effect after treatment ([3]; 11,25 mg slow release s.c. implant, no 'with PPA' mark, individual bitches): 0 days | Duration of effect after treatment [3, 6]: >14 days | Effect on incontinence [3, 6]: 100% | Duration of effect after treatment [3, 7]: >64 days | Effect on incontinence [3, 7]: 100%

CN[C@@H](C)[C@H](O)c1ccccc1 [ephedrinhydrochloride]
Continence achieved [4]: 74% | Showed some improvement [4]: at least 24%

CC(N)C(O)c1ccccc1 (centres unmarked) [phenylpropanolamine]
Continence achieved [4]: 74% | Showed some improvement [4]: at least 24%

Buserelin acetate [Buserelinacetate]
Duration of effect after treatment ([3]; 6,3 mg slow release s.c. implant, individual bitches): 44 days and 83 days | Effect on incontinence ([3]; 6,3 mg slow release s.c. implant, no 'with PPA' mark, individual bitches): 100%

Deslorelin acetate [Deslorelinacetate]
Side effects ([3]; 6 mg slow release s.c. implant, individual bitches): More playfull | Duration of effect after treatment [3, 8]: >47 days and >340 days | Effect on incontinence [3, 8]: 100% | Effect on incontinence ([3]; 6 mg slow release s.c. implant, with PPA, individual bitch): 100% | Side effects ([3]; 12 mg slow release s.c. implant, individual bitches): less aggressive; also recorded: more activ | Duration of effect after treatment [3, 9]: 64 days and >64 days | Effect on incontinence [3, 9]: 100% | Effect on incontinence ([3]; 12 mg slow release s.c. implant, with PPA, individual bitches): 80% and 100% (2×)

Triptorelin acetate [Triptorelinacetate]
Duration of effect after treatment ([3]; 3,75 mg slow release s.c. implant (dose too low), individual bitch): 0 | Period of improvement of symptoms [5]: about 4 weeks
